Laboratory results reported in patent publication US20090176846A1, “N-hydroxy-4- {5- [4- (5-isopropyl-2-methyl-1, 3-thiazol-4-yl) phenoxy] pentoxy} benzamidine 2 methanesulfonic acid salt” (priority 2005, published 2009).
In brackets after ≈: the same amount, converted by molar mass. Structures can show the parent of a compound that is named as a salt. Where two headings read alike, the source gives them in different places.

What was measured:
[1] = Pharmacokinetic evaluation in SD rats; assay type: in vivo; conditions: 50 mg/kg; for Cmax (maximum blood concentration): n=4
Description: The 2 methanesulfonic acid salt, prepared in Example 1, and the 1 methanesulfonic acid salt, prepared in Comparative Example 1, of N-Hydroxy-4-{5-[4-(5-isopropyl-2-methyl-1,3-thiazol-4-yl)phenoxy]pentoxy} benzamidine, and the N-Hydroxy-4-{5-[4-(5-isopropyl-2-methyl-1,3-thiazol-4-yl)phenoxy]pentoxy} benzamidine, prepared in Reference Preparation Example 1, were individually administered to SD rats in a dosage of 50 mg/kg. At given time points (0, 0.5, 1, 1.5, 2, 3, 5 and 8 hrs), rats were mildly anesthetized with diethyl ether, and blood samples were collected from the orbital venous plexus and stored at −20° C. until concentration analysis. The plasma samples were mixed with an equal volume of an internal standard substance solution (prepared by dissolving betamethasone in acetonitrile to give a final concentration of 30 μg/ml) with agitation for. 1 min, and was centrifuged at 12,000 rpm for 10 min. Active components of the plasma samples were analyzed by HPLC (Model: Waters Module 1). From the obtained data, pharmacokinetic parameters (maximum blood concentration (Cmax) and area under the blood concentration-time curve (AUC) were calculated by noncompartment analysis using the WinNonlin program (Version 1.0, Scientific Consulting Inc., USA). The results are given in Table 5, below.

[2] = Solubility in various solvents at room temperature; assay type: physicochemical
Source text: The 2 methanesulfonic acid salt, prepared in Example 1, and the 1 methanesulfonic acid salt, prepared in Comparative Example 1, of N-Hydroxy-4-{5-[4-(5-isopropyl-2-methyl-1,3-thiazol-4-yl)phenoxy]pentoxy} benzamidine, and the N-Hydroxy-4-{5-[4-(5-isopropyl-2-methyl-1,3-thiazol-4-yl)phenoxy]pentoxy} benzamidine, prepared in Reference Preparation Example 1, were examined for solubility (μg/mL) in various solvents at room temperature.

[3] = Stability under accelerated conditions (40±2° C./75±5% RH), HPLC content; assay type: physicochemical; conditions: for Content (%): 40±2° C./75±5% RH, cap-opened vial, HPLC area percentage
Description: The 2 methanesulfonic acid salt of N-Hydroxy-4-{5-[4-(5-isopropyl-2-methyl-1,3-thiazol-4-yl)phenoxy]pentoxy} benzamidine, prepared in Example 1, was placed into a transparent glass vial, and stored at a cap-opened state under accelerated conditions (40±2° C./75±5% RH) for a period of two weeks. Thereafter, the sample was analyzed by HPLC (Waters Module 1). The analysis was performed using a column packed with an octadecyl-silylated silica gel (Shiseido CAPCELL PAK C18, UG 120, Particle size 5 μm) under conditions: UV detection: 256 nm, injection volume: 10 μl, mobile-phase flow rate: 1.5 mL/min. The amount of the compound was calculated as an area percentage.

[4] = tested on: allergic inflammatory diseases (asthma); conditions: asthmatic mice, cited from earlier work
bone fractures = conditions: rats, compared to control not treated; cited from earlier work
[5] = distilled water, room temperature
[6] = dose-dependent, compared to control group

Compound: CS(=O)(=O)O.Cc1nc(-c2ccc(OCCCCCOc3ccc(C(=N)NO)cc3)cc2)c(C(C)C)s1 [1 methanesulfonic acid salt, N-Hydroxy-4-{5-[4-(5-isopropyl-2-methyl-1,3-thiazol-4-yl)phenoxy]pentoxy} benzamidine 1 methanesulfonic acid salt]
- Cmax (maximum blood concentration) [1]: 1400 ± 110 ng/mL
- AUC (area under the blood concentration-time curve) ([1]; n=4, 0-8 hrs): 7010 ± 600 ng·h/mL
- solubility [2, 5]: 414.34 µg/mL
- solubility ([2]; pH 1.2, room temperature): 1,092.98 μg/mL
- solubility ([2]; pH 4.0, room temperature): 0.99 µg/mL

Compound: Cc1nc(-c2ccc(OCCCCCOc3ccc(C(=N)NO)cc3)cc2)c(C(C)C)s1 [2 methanesulfonic acid salt, N-Hydroxy-4-{5-[4-(5-isopropyl-2-methyl-1,3-thiazol-4-yl)phenoxy]pentoxy} benzamidine 2 methansulfonic acid salt]
- Cmax (maximum blood concentration) [1]: 1670 ± 320 ng/mL
- AUC (area under the blood concentration-time curve) ([1]; n=4, 0-8 hrs): 10300 ± 800 ng·h/mL
- bioavailability ([1]; SD, rat, plasma, read-out: bioavailability relative to the 1 methanesulfonic acid salt): > 46%
- change in content in accelerated test ([3]; accelerated test at 40° C., two weeks): no change
- Content (%) ([3]; after 1 week): 99.87%
- Content (%) ([3]; after 2 weeks): 99.86%
- Content (%) ([3]; after 2 days): 99.86%
- Content (%) ([3]; early stage): 99.85%
- solubility [2, 5]: 3,535.33 μg/mL
- solubility ([2]; pH 1.2, room temperature): 1,686.71 μg/mL
- solubility fold higher than the 1 methanesulfonic acid salt ([2]; pH 4.0): about 3 fold
- solubility ([2]; solvent of pH 4.0 (composition not named), pH 4, aqueous buffer, pH 4.0, room temperature, read-out: solubility): 3 µg/mL

Compound: Cc1nc(-c2ccc(OCCCCCOc3ccc(C(=N)NO)cc3)cc2)c(C(C)C)s1 [Free base, N-Hydroxy-4-{5-[4-(5-isopropyl-2-methyl-1,3-thiazol-4-yl)phenoxy]pentoxy} benzamidine]
- AUC ([1]; SD, rat, plasma, n=4, 0-8 hrs, read-out: AUC (area under the blood concentration-time curve)): 5310 ± 490 ng·h/mL
- Cmax ([1]; SD, rat, plasma, n=4, read-out: Cmax (maximum blood concentration)): 1090 ± 170 ng/mL
- alveolar area ([4]; compared to control group): significantly increased
- number of eosinophils [4, 6]: significantly decreased
- number of eosinophils in bronchoalveolar lavage fluid [4, 6]: significantly decreased
- total number of leukocytes [4, 6]: significantly decreased
- increase in lung weight ([4]; oral administration for 18 days, compared to control given sterile distilled water): suppressed
- solubility [2, 5]: 3.48 µg/mL (≈ 7.67 µM)
- solubility ([2]; solvent of pH 1.2 (composition not named), pH 1.2, simulated gastric fluid, pH 1.2, room temperature, read-out: solubility): 951 µg/mL (≈ 2100 µM)
- bone mineral content of callus (bone fractures): significantly enhanced
- bone tissue density (bone fractures): significantly increased
- callus volume (bone fractures): significantly reduced
- content of connective and soft tissues in the callus tissue (bone fractures): significantly reduced
- mechanical strength of callus (bone fractures): significantly enhanced
